Measurements as given in ChEMBL document CHEMBL4033745, “3D-QSAR (CoMFA, CoMSIA), molecular docking and molecular dynamics simulations study of 6-aryl-5-cyano-pyrimidine derivatives to explore the structure requirements of LSD1 inhibitors” (Bioorg Med Chem Lett, 2017).

Biological target: Lysine-specific histone demethylase 1A (Homo sapiens, UniProt O60341)
Test: Inhibition of LSD1 (unknown origin)

Row | Structure (SMILES) | IC50 (read-out: IC50) [µM] | IC50 (read-out: pIC50 (converted)) [µM]
1 | C#CCSc1nc(Nc2ccc([N+](=O)[O-])cc2)c(C#N)c(-c2ccccc2)n1 | 125 | 123
2 | C#CCSc1nc(Nc2ccc(F)cc2)c(C#N)c(-c2ccccc2)n1 | 125 | –
3 | C#CCSc1nc(Nc2ccc(Cl)cc2)c(C#N)c(-c2ccccc2)n1 | 125 | –
4 | COc1cc(-c2nc(SCc3ccc(F)cc3)nc(NNC(N)=S)c2C#N)cc(OC)c1OC | 125 | –

Continued by falling IC50 (read-out: IC50), values first:

Row | IC50 (read-out: IC50) [µM] | IC50 (read-out: pIC50 (converted)) [µM] | Structure (SMILES)
5 | 125 | – | N#Cc1c(Cl)nc(SCc2cn(Cc3ccccc3Cl)nn2)nc1-c1ccc(Cl)cc1
6 | 125 | – | C#CCSc1nc(Cl)c(C#N)c(-c2ccc([N+](=O)[O-])cc2)n1
